Experimental findings from ChEMBL document CHEMBL1157243, “The sapogenin atroviolacegenin and its diglycoside atroviolaceoside from Allium atroviolaceum” (2006) are described below.

Calls of active or inactive are those of the source. No cut-off for these calls is given here.

One experiment concerns Ileum. As to the kind of experiment: Antispasmodic activity in guinea pig ileum assessed as inhibition of histamine-induced tissue contraction at 10^-8 to 10^-5 M after 30 mins. It counts as functional, Cavia porcellus.
Conditions: not given
As for `C[C@H]1[C@H]2[C@H](C[C@H]3[C@@H]4C[C@@H](O)[C@H]5C[C@@H](O[C@@H]6O[C@H](CO)[C@H](O[C@@H]7O[C@H](CO)[C@@H](O)[C@H](O)[C@H]7O)[C@H](O)[C@H]6O)[C@H](O)C[C@]5(C)[C@H]4CC[C@]23C)O[C@]12CC[C@@H](CO)CO2` [ATROVIOLACEOSIDE], the “inhibition (INH)” value is 0%.

Consider `C[C@H](CC[C@@]1(O)O[C@H]2C[C@H]3[C@@H]4CC=C5C[C@@H](O)C[C@@H](O[C@@H]6O[C@H](CO)[C@H](O)[C@H](O)[C@H]6O)[C@]5(C)[C@H]4CC[C@]3(C)[C@H]2[C@@H]1C)CO[C@@H]1O[C@H](C)[C@@H](O)[C@H](O)[C@@H]1O` [TROPEOSIDE A1], for which the “inhibition (INH)” value turned out to be 50%.

For `C[C@H](CC[C@]1(O)O[C@H]2C[C@H]3[C@@H]4CC=C5C[C@@H](O)C[C@@H](O[C@@H]6O[C@H](CO)[C@H](O)[C@H](O)[C@H]6O)[C@]5(C)[C@H]4CC[C@]3(C)[C@H]2[C@@H]1C)CO[C@@H]1O[C@H](C)[C@@H](O)[C@H](O)[C@@H]1O` [TROPEOSIDE A2], the “inhibition (INH)” value was determined as 50%.

Take `C[C@H](CC[C@@]1(O)O[C@H]2C[C@H]3[C@@H]4CC=C5C[C@@H](O)C[C@@H](O[C@@H]6OC[C@@H](O)[C@H](O)[C@H]6O)[C@]5(C)[C@H]4CC[C@]3(C)[C@H]2[C@@H]1C)CO[C@@H]1O[C@H](C)[C@@H](O)[C@H](O)[C@@H]1O` [TROPEOSIDE B1]: the “inhibition (INH)” value is reported as 50%.

For `C[C@H](CC[C@]1(O)O[C@H]2C[C@H]3[C@@H]4CC=C5C[C@@H](O)C[C@@H](O[C@@H]6OC[C@@H](O)[C@H](O)[C@H]6O)[C@]5(C)[C@H]4CC[C@]3(C)[C@H]2[C@@H]1C)CO[C@@H]1O[C@H](C)[C@@H](O)[C@H](O)[C@@H]1O` [TROPEOSIDE B2], the “inhibition (INH)” value was 50%.

Still in this experiment, the particulars now being: Cavia porcellus.
Regarding `C[C@H]1[C@H]2[C@H](C[C@H]3[C@@H]4C[C@@H](O)[C@H]5C[C@@H](O)[C@H](O)C[C@]5(C)[C@H]4CC[C@]23C)O[C@]12CCC(CO)CO2` (single isomer, unassigned), the result was inactive.
